Measurements taken from patent US8951397B2, “Electrophoretic analysis method” (Godo Shusei Co., Ltd., priority 2009, dated 2015).

What was measured:
D protease [1] = target: T1, D protease (Paenibacillus polymyxa, UniProt P29148); experiment: Inhibition, activation and stabilization of D protease; format: biochemical; details: for Inhibition of D protease: metal chelating agents and oxidizing agents
D protease [2] = target: T1, D protease; details: Patent Document 1; cited from earlier work

T1 sequence (P29148 287-590): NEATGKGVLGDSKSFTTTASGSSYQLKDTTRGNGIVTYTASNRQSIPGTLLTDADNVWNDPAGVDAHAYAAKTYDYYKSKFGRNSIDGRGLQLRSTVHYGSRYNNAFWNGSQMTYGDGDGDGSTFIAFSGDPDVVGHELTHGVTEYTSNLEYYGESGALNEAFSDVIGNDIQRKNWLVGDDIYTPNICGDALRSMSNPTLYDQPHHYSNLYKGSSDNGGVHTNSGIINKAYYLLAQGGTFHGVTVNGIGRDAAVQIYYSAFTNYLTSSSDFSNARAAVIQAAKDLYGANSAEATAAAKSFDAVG

SMILES | Inhibition of D protease (D protease [1]) | Effect on D protease activity (D protease [2]) | other results
c1ccc(-c2ccccn2)nc1 [2,2-dipyridyl] | inhibited | – | –
[Al+3] [Al^3+] | – | activity enhanced | –
[Ca+2] [Ca^2+] | – | activity enhanced | Stabilization of D protease (D protease [1]): stabilized
[Fe+2] [Fe^2+] | – | activity enhanced | –
[Mg+2] [Mg^2+] | – | activity enhanced | –
[Mn+2] [Mn^2+] | – | activity enhanced | –
O=C1CCC(=O)N1Br [N-bromosuccinimide] | inhibited | – | –
c1cnc2c(c1)ccc1cccnc12 [O-phenanthroline] | inhibited | – | –
O=C(O)CC(O)(CC(=O)O)C(=O)O [citric acid] | inhibited | – | –
II [iodine] | inhibited | – | –
[F-].[Na+] [sodium fluoride] | inhibited | – | –
[Zn+2] [zinc ion] | – | – | Activation of D protease (D protease [1]): activation thereof requires zinc ion
